# Assay results reported in US5624923A, “Tricyclic diazepine vasopressin antagonists and oxytocin antagonists” (priority 1995, dated 1997).
# Molecular target: T1, Human V2 Vasopressin Receptor (Homo sapiens, UniProt P30518)
# T1 construct: expressed in transfected cells; host or cells: mouse fibroblast cell line LV-2
# Experiment: Binding to Membranes of Mouse Fibroblast Cell Line (LV-2) Transfected with the cDNA Expressing the Human V2 Vasopressin Receptor
# Conditions: LV-2 cell membranes, human V2; read-out: V2 IC50 (**)
# T1 sequence (P30518 whole entry): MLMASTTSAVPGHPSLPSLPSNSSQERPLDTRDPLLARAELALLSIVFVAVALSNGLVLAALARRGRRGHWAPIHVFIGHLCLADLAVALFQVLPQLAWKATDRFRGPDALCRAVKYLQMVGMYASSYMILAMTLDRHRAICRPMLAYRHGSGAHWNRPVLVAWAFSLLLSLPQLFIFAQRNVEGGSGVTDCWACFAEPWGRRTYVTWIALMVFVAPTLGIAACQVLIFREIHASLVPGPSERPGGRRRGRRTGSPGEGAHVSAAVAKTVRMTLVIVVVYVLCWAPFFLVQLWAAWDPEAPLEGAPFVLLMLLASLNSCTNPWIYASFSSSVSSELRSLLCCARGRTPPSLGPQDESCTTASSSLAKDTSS
row,IC50,Structure (SMILES)
1,3.2 nM,"COc1cc(C(=O)N2Cc3cccn3Cc3ccccc32)ccc1NC(=O)c1ccccc1C [Example 477, N-[4-(5H-pyrrolo[2,1-c][1,4]benzodiazepin-10(11H)-ylcarbonyl)-2-methoxy-phenyl]-2-methylbenzamide]"
2,0.42 nM,"Cc1cccc(C(=O)Nc2ccc(C(=O)N3Cc4cccn4Cc4ccccc43)c(Cl)c2)c1C [Example 525, N-[4-(5H-pyrrolo[2,1-c][1,4]benzodiazepin-10(11H)-ylcarbonyl]-3-chlorophenyl]-2,3-dimethylbenzamide]"
3,1.9 nM,"COc1cc(C(=O)N2Cc3cccn3Cc3ccccc32)ccc1NC(=O)c1ccc(Cl)cc1Cl [Example 478, N-[4-(5H-pyrrolo[2,1-c][1,4]benzodiazepin-10(11H)-ylcarbonyl)-2-methoxy-phenyl]-2,4-dichlorobenzamide]"

# The remaining lines, values behind:
row,Structure (SMILES),IC50
1,"O=C(Nc1ccc(C(=O)N2Cc3cccn3Cc3ccccc32)c(Cl)c1)c1ccc(F)cc1Cl [Example 527, N-[4-(5H-pyrrolo[2,1-c][1,4]benzodiazepin-10(11H)-ylcarbonyl]-3-chlorophenyl]-4-fluoro-2-chlorobenzamide]",0.67 nM
2,"O=C(Nc1ccc(C(=O)N2Cc3ccnn3Cc3ccccc32)cc1)c1ccc(Cl)cc1Cl [Example 217, N-[4-(4H-Pyrazolo[5,1-c][1,4]benzo-diazepin-5(10H)-ylcarbonyl)phenyl]-2,4-dichlorobenzamide]",10 nM
3,"O=C(Nc1ccc(C(=O)N2Cc3cccn3Cc3ccccc32)c(Cl)c1)c1ccccc1C(F)(F)F [Example 528, N-[4-(5H-pyrrolo[2,1-c][1,4]benzodiazepin-10(11H)-ylcarbonyl]-3-chlorophenyl]-2-(trifluoromethyl)benzamide]",6 nM
4,"O=C(Nc1ccc(C(=O)N2Cc3cccn3Cc3sccc32)cc1)c1ccc(Cl)cc1Cl [Example 274, N-(4-(5H-pyrrolo[1,2-a]thieno-[3,2-e][1,4]diazepin-4(10H)-ylcarbonyl)phenyl]-2,4-dichloro-benzamide]",31 nM
5,"O=C(Nc1ccc(C(=O)N2Cc3cccn3Cc3ccccc32)cc1)c1cc([N+](=O)[O-])ccc1Cl [Example 480, N-[4-(5H-pyrrolo[2,1-c][1,4]benzodiazepin-10(11H)-ylcarbonyl)phenyl]-2-chloro-5-nitrobenzamide]",26 nM
